Results taken from ChEMBL document CHEMBL1158707, “Botryane metabolites from the fungus Geniculosporium sp. isolated from the marine red alga Polysiphonia” (2005).

Legend:
Format in all cases: functional
[Chlorella] fusca [1] = Antimicrobial activity against Chlorella fusca at 2 mg/ml; settings: Scenedesmus fuscus; read-out: IZ
[Chlorella] fusca [2] = Antimicrobial activity against Chlorella fusca at 8 mg/ml; settings: Scenedesmus fuscus; read-out: IZ
Microbotryum violaceum [3] = assay: Antimicrobial activity against Microbotryum violaceum 1 mg/ml
Priestia megaterium [4] = assay: Antimicrobial activity against Bacillus megaterium 1mg/ml
Microbotryum violaceum [5] = assay: Antimicrobial activity against Microbotryum violaceum 5 mg/ml
Priestia megaterium [6] = assay: Antimicrobial activity against Bacillus megaterium 5 mg/ml
[Chlorella] fusca [7] = Antimicrobial activity against Chlorella fusca at 1 mg/ml; settings: Scenedesmus fuscus; read-out: IZ
[Chlorella] fusca [8] = Antimicrobial activity against Chlorella fusca at 5 mg/ml; settings: Scenedesmus fuscus; read-out: IZ

Compound	zone of inhibition at 2000 µg/mL ([Chlorella] fusca [1])	zone of inhibition at 8000 µg/mL ([Chlorella] fusca [2])	inhibition zone (IZ) (Microbotryum violaceum [3])	inhibition zone (IZ) (Priestia megaterium [4])	inhibition zone (IZ) (Microbotryum violaceum [5])	inhibition zone (IZ) (Priestia megaterium [6])	zone of inhibition at 1000 µg/mL ([Chlorella] fusca [7])	zone of inhibition at 5000 µg/mL ([Chlorella] fusca [8])
Cc1ccc2c3c1COC[C@@]3(C)[C@H](O)C2(C)C	5 mm	5 mm	–	–	–	–	–	–
CCO[C@H]1OC[C@]2(C)c3c(ccc(C)c31)C(C)(C)[C@H]2O	5 mm	6 mm	–	–	–	–	–	–
Cc1ccc2c3c1[C@@H](O)OC[C@@]3(C)[C@H](O)C2(C)C	–	–	0 mm	0 mm	6 mm	6 mm	0 mm	12 mm
C[C@@H]1CCC2=C3C1=COC[C@@]3(C)[C@H](O)C2(C)C	–	–	0 mm	0 mm	5 mm	0 mm	0 mm	6 mm
CO[C@H]1OC[C@@]2(C)[C@H](O)C(C)(C)[C@@H]3[C@@H](O)C[C@@H](C)[C@H]1[C@@]32O	–	–	0 mm	0 mm	0 mm	0 mm	0 mm	0 mm
C[C@@H]1C[C@H](O)[C@H]2C(C)(C)C[C@]3(C)CO[C@H](O)[C@@H]1[C@@]23O	–	–	0 mm	0 mm	0 mm	0 mm	0 mm	0 mm
C[C@@H]1C[C@H](O)[C@@H]2C(=C1C=O)[C@@](C)(CO)[C@H](O)C2(C)C	0 mm	6 mm	–	–	–	–	–	–
Cc1ccc2c3c1C(=O)OC[C@@]3(C)[C@H](O)C2(C)C	–	–	0 mm	0 mm	0 mm	6 mm	0 mm	8 mm
C[C@@H]1C[C@H](O)C2=C3C1=COC[C@@]3(C)[C@H](O)C2(C)C	–	–	0 mm	0 mm	5 mm	0 mm	0 mm	7 mm
CO[C@H]1OC[C@]2(C)c3c(ccc(C)c31)C(C)(C)[C@H]2O	–	–	0 mm	0 mm	8 mm	6 mm	0 mm	6 mm
CO[C@H]1OC[C@@]2(C)[C@H](OC(C)=O)C(C)(C)[C@@H]3[C@@H](OC(C)=O)C[C@@H](C)[C@H]1[C@@]32O	–	–	0 mm	0 mm	0 mm	0 mm	0 mm	0 mm
C[C@@H]1CC=C2[C@@H]3[C@H]1CC(O)[C@@]3(C=O)CC2(C)C (some centres not stated)	–	–	0 mm	0 mm	0 mm	0 mm	0 mm	10 mm
C[C@@H]1C[C@H](O)[C@@H]2C3=C1[C@@H](O)OC[C@@]3(C)[C@H](O)C2(C)C	0 mm	7 mm	–	–	–	–	–	–
